Test results from ChEMBL document CHEMBL1126428, “Inhibitors of myo-inositol monophosphatase unrelated to the enzyme substrate” (Bioorg Med Chem Lett, 1992).

Target: T1, Inositol monophosphatase 1 (Bos taurus, UniProt P20456)
T1 sequence (P20456 whole entry): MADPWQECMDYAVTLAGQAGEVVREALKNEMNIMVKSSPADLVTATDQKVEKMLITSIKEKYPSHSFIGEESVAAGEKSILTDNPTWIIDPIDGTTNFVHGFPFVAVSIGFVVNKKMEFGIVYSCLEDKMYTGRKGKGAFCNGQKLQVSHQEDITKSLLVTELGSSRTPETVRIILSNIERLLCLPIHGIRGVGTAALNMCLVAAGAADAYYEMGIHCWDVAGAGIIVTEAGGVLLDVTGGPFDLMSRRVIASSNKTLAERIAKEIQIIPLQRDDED
Experiment: Concentration required for 50% inhibition of Inositol monophosphatase

Compound O=P(O)(O)C(O)(c1ccc(Cl)cc1)P(=O)(O)O has an IC50 of 36 µM.
Compound O=P(O)(O)C(O)(Cc1ccccc1)P(=O)(O)O has an IC50 of 38 µM.
For CC(O)(P(=O)(O)O)P(=O)(O)O [ETIDRONIC ACID], the IC50 was 110 µM.
O=P(O)(O)C(O)(Cc1ccc(Cl)cc1Cl)P(=O)(O)O was tested, and the IC50 was 23 µM.
For CN(C)c1ccc(C(O)(P(=O)(O)O)P(=O)(O)O)cc1, the IC50 was 140 µM.
COc1ccc(C(O)(P(=O)(O)O)P(=O)(O)O)cc1 gave an IC50 of 40 µM.
For O=P(O)(O)C(O)(c1ccccc1)P(=O)(O)O, the IC50 was 29 µM.
In the case of O=P(O)(O)C(O)(c1ccc(Oc2cccc3c2CCCC3)cc1)P(=O)(O)O, the IC50 is reported as 0.61 µM.
